For assay [1], the system named is IL-2 (alpha chain CD25) receptor. The experiment in a line: IL-2 receptor expression on anti-CD3 stimulated splenocytes (flow cytometry). It counts as cell-based, mouse. The following applies: anti-CD3 10 µg/ml, 1 µM. The protocol: This investigation illustrates IL-2 (alpha chain CD25) receptor expression on mouse splenoyctes. The IL-2 receptor is not expressed on resting T-cells, but is rapidly-induced by certain stimulants, e.g. antigen recognition or treatment with ConA or antibodies to CD3 (anti-CD3). IL-2-dependent proliferation requires IL-2 receptor expression. […] 49 (1 µM). Following overnight incubation, the splenocytes were stained with a fluoresceinated anti-IL-2 receptor antibody and fluorescence measured by flow cytometry. Figures 5A and 5B are frequency histograms of measurements for 20,000 cells per sample.
In another assay, inventive compound no. […] Murine splenocytes were activated for 24 hours with anti-CD3 (1 µg/ml), stained with a fluorescent antibody to CD25 and analyzed by flow cytometry.

The test system of assay [2] is splenocyte IL-2-stimulated proliferation. Kind of assay: Splenocyte IL-2-stimulated proliferation. The assay is classed as cell-based. Particulars: Mus musculus, read-out: block of splenocyte IL-2-stimulated proliferation.
Assay [3] deals with IL-2. The experiment in a line: IL-2 production in thymocytes stimulated with ConA and IL-1 (ELISA). The assay is classed as cell-based, murine. The following applies: ConA and IL-1, 4 days. The source says: Thymocytes were stimulated with ConA and IL-1 for 4 days with or without adding inventive compounds to the culture media. The supernatants were removed and assayed by ELISA for IL-2 levels by a commercially available kit.

The test system of assay [4] is murine cytotoxic T-cell line, CT6. The experiment in a line: Cytokine-induced proliferation of the cytotoxic T-cell line CT6 / CT-6.1. It counts as cell-based. Particulars: added one hour prior to IL-2, thymidine at 48 hours. As for the experimental part:
Another assay in this example was used to determine inhibitive activity of the inventive compounds on direct IL-2-induced proliferation in a murine cytotoxic T-cell line, CT6. The CT6 cell line is an IL-2-dependent cell line. IL-2 was removed from the medium for 24 hours prior to stimulation. […] 49, 50, 45, 43 or 41 were added at various concentrations. The cells were stimulated with IL-2 and amount of tritiated thymidine dye incorporated was measured 48 hours later.
In another related assay, inhibitory effects on CT6 cell proliferation is examined. CT6 cells are a murine IL-2 dependent, cytotoxic T cell line that proliferate in response to murine IL-2 (15 U/ml).
CT-6.1 cells were starved overnight and stimulated with IL-2 (20 ng/ml). Twenty hours later, cells were labeled for 4 hours with ^3H-TdR and counted by liquid scintillation.
CT6.1 cells were cultured with IL-2 with or without the addition of inventive compound no. 45 (2 µM) and viable cells counted for up to 8 days. On day 4, two cultures previously incubated with compound no. 45, were washed and recultured with fresh IL-2 with or without compound no. 45 (2 µM).
Procedurally, CT-6.1 cells were starved overnight and stimulated with either IL-2 (20 ng/ml), IL-4 (50 ng/ml) or IL-7 (25 ng/ml). ^3H-TdR was added at 20 hours, cells were harvested 4 hours later, and the incorporation of ^3H-TdR was determined.

The values that follow come from EP0719267B1, “SECOND MESSENGER CELL SIGNALING INHIBITORS” (CELL THERAPEUTICS, INC., priority 1993, dated 1994).

Consider `CCCCCCCCCCNCC(O)CCCCCCCCCn1c(=O)c2c(ncn2C)n(C)c1=O` (stereo not shown) [compound no. 49, 1-(11-Decylamino-10-hydroxyundecyl)-3,7-dimethylxanthine], for which the IL-2 receptor expression result in assay [1] was “has no effect on receptor expression”. The inhibition at 1 µM in assay [2] is 90%. Further, in assay [3], the IL-2 production entry was “do not inhibit production of IL-2”. The “inhibition of direct IL-2-induced proliferation” value in assay [4] was “inhibited direct IL-2-induced CT6 proliferation”.
